Structures are written as SMILES. Where a name gives a salt, the structure may show the parent alone.

The subject of the test is HCT116. Particulars: 72 h. Put shortly:
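HCT116 cells were plated at 250 per well in 1536-well plates and allowed 5 h to attach. CellTiter-Glo luminescence was normalized to vehicle as 0% and positive control as -100%, followed by pattern correction. Four-parameter Hill fits provided IC50 and maximal efficacy.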

On to `N=C(N)NC(=O)c1nc(Cl)c(N)nc1N` [Amiloride], for which the IC50 cell viability is, setting by setting: (ICRF193 0 nM) above 45.8 µM; (ICRF193 200 nM) above 45.8 µM.

Turning to `C=CCN1CCc2nc(N)sc2CC1` [Talipexole], the IC50 cell viability by setting is: (ICRF193 0 nM) above 45.8 µM; (ICRF193 200 nM) above 45.8 µM.

As to `CCCOc1ccc2nc(NC(=O)OC)sc2c1` [Tioxidazole], the IC50 cell viability (ICRF193 0 nM) was above 45.8 µM and the IC50 cell viability (ICRF193 200 nM) is above 45.8 µM.

In turn, `CCC[C@@]1(CCc2ccccc2)CC(O)=C([C@H](CC)c2cccc(NS(=O)(=O)c3ccc(C(F)(F)F)cn3)c2)C(=O)O1` [Tipranavir] came in with an IC50 cell viability (ICRF193 0 nM) above 45.8 µM and an IC50 cell viability (ICRF193 200 nM) above 45.8 µM.

Take `CC(C(=O)O)c1ccc(C2CCCCC2)c2ccccc12` (centres undefined) [Quadrisol]: the IC50 cell viability is, setting by setting: (ICRF193 0 nM) above 45.8 µM; (ICRF193 200 nM) above 45.8 µM.

`COc1ccc(C(=O)c2ccccc2)c(O)c1` [2-Hydroxy-4-methoxybenzophenone] registered an IC50 cell viability (ICRF193 0 nM) above 45.8 µM and an IC50 cell viability (ICRF193 200 nM) above 45.8 µM.

With `COc1ccccc1OCC(O)CO` (centres undefined) [Guaifenesin], the IC50 cell viability is above 45.8 µM (ICRF193 0 nM) and above 45.8 µM (ICRF193 200 nM).

Take `COC(c1ccccc1)(c1ccccc1)[C@H](Oc1nc(C)cc(C)n1)C(=O)O` [Ambrisentan]: the IC50 cell viability is above 45.8 µM (ICRF193 0 nM) and above 45.8 µM (ICRF193 200 nM).

Regarding `Nc1cc(Cl)c(NC2=NCCN2)c(Cl)c1` [p-Aminoclonidine hydrochloride], the IC50 cell viability (ICRF193 0 nM) is above 45.8 µM and the IC50 cell viability (ICRF193 200 nM) was above 45.8 µM.

Consider `NCCc1ccc(O)c(O)c1` [Dopamine hydrochloride], for which the IC50 cell viability (ICRF193 0 nM) was above 45.8 µM and the IC50 cell viability (ICRF193 200 nM) is above 45.8 µM.

`OC(Cn1cncn1)(Cn1cncn1)c1ccc(F)cc1F` [Fluconazole]: the IC50 cell viability is, setting by setting: (ICRF193 0 nM) above 45.8 µM; (ICRF193 200 nM) above 45.8 µM.

Take `CSCC[C@H](N)C(=O)O` [L-Methionine]: the IC50 cell viability is, setting by setting: (ICRF193 0 nM) above 45.8 µM; (ICRF193 200 nM) above 45.8 µM.

Consider `Cc1cccc([C@H](C)c2c[nH]cn2)c1C` [Dexmedetomidine], for which the IC50 cell viability runs as follows: (ICRF193 0 nM) above 45.8 µM; (ICRF193 200 nM) above 45.8 µM.

Molecule `Cc1c(C(=O)O)c(O)cc2c1C(=O)c1c(O)c(C3OC(CO)C(O)C(O)C3O)c(O)c(O)c1C2=O` (centres undefined) [Cochineal] gave an IC50 cell viability (ICRF193 0 nM) above 45.8 µM and an IC50 cell viability (ICRF193 200 nM) above 45.8 µM.

For `CC(C)=C/C(C)=N/Nc1nncc2ccccc12` [Budralazine], the IC50 cell viability is, setting by setting: (ICRF193 0 nM) above 45.8 µM; (ICRF193 200 nM) above 45.8 µM.

Consider `CC(C(=O)O)c1ccc(C(=O)c2ccccc2)s1` (centres undefined) [Tiaprofenic acid], for which the IC50 cell viability by setting is: (ICRF193 0 nM) above 45.8 µM; (ICRF193 200 nM) above 45.8 µM.

For the molecule `CC(C)c1nc(N(C)S(C)(=O)=O)nc(-c2ccc(F)cc2)c1/C=C/[C@@H](O)C[C@@H](O)CC(=O)O` [Rosuvastatin calcium (Crestor)], the IC50 cell viability is, setting by setting: (ICRF193 0 nM) above 45.8 µM; (ICRF193 200 nM) above 45.8 µM.

Regarding `CCOC(=O)c1ccc(NC(=O)CN2CCCCC2)cc1` [Sulcaine], the IC50 cell viability was above 45.8 µM (ICRF193 0 nM) and above 45.8 µM (ICRF193 200 nM).

`CC(=O)Nc1ccc(OC(=O)c2ccccc2OC(C)=O)cc1` [Benorylate]: the IC50 cell viability is above 45.8 µM (ICRF193 0 nM) and above 45.8 µM (ICRF193 200 nM).

`CC(=O)Nc1ccc(S(=O)(=O)Nc2cc(C)on2)cc1` [N-Acetyl sulfamethoxazole] had an IC50 cell viability (ICRF193 0 nM) above 45.8 µM and an IC50 cell viability (ICRF193 200 nM) above 45.8 µM.

For the molecule `CO/N=C(\C(=O)N[C@@H]1C(=O)N2C(C(=O)O)=C(C[N+]3(C)CCCC3)CS[C@H]12)c1csc(N)n1` [CEFEPIME HYDROCHLORIDE], the IC50 cell viability reads like this: (ICRF193 0 nM) above 45.8 µM; (ICRF193 200 nM) above 45.8 µM.

With `NCCNC(=O)c1ccc(Cl)cn1` [Lazabemide hydrochloride], the IC50 cell viability is above 45.8 µM (ICRF193 0 nM) and above 45.8 µM (ICRF193 200 nM).

Turning to `CCOC(=O)c1ccc(O)cc1` [Ethylparaben], the IC50 cell viability was above 45.8 µM (ICRF193 0 nM) and above 45.8 µM (ICRF193 200 nM).

As to `CN1C(=O)NC(=O)C(C)(C2=CCCCC2)C1=O` (centres undefined) [Hexobarbital], the IC50 cell viability by setting is: (ICRF193 0 nM) above 45.8 µM; (ICRF193 200 nM) above 45.8 µM.

In the case of `Cn1cnc2c1c(=O)[nH]c(=O)n2C` [Theobromine], the IC50 cell viability is above 45.8 µM (ICRF193 0 nM) and above 45.8 µM (ICRF193 200 nM).

With `O=C(CCCN1CCC2(CC1)C(=O)NCN2c1ccccc1)c1ccc(F)cc1` [Spiperone], the IC50 cell viability by setting is: (ICRF193 0 nM) above 45.8 µM; (ICRF193 200 nM) above 45.8 µM.

Take `CC(C)CCC[C@@H](C)[C@H]1CC[C@H]2[C@@H]3CC[C@H]4C[C@@H](O)CC[C@]4(C)[C@H]3CC[C@]12C` [5alpha-Cholestan-3beta-ol]: the IC50 cell viability is above 45.8 µM (ICRF193 0 nM) and above 45.8 µM (ICRF193 200 nM).
